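The concentration for 50% growth inhibition is given as GI50. The concentration for full growth arrest is given as TGI.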
What was measured:
Experiment in all cases: inhibition of tumour cell growth, NCI panel, 384-well format
[1] = system: 786-0 renal
[2] = system: A498 renal
[3] = system: A549 NSCLC
[4] = system: ACHN renal
[5] = system: BT-549 breast
[6] = system: CAKI-1 renal
[7] = system: COLO 205 colon
[8] = system: DU-145 prostate
[9] = system: EKVX NSCLC
[10] = system: HCC-2998 colon
[11] = system: HCT-116 colon
[12] = system: HCT-15 colon
[13] = system: HL-60(TB) leukemia
[14] = system: HOP-62 NSCLC
[15] = system: HOP-92 NSCLC
[16] = system: HS 578T breast
[17] = system: HT29 colon
[18] = system: IGROV1 ovarian
[19] = system: KM12 colon
[20] = system: LOX IMVI melanoma
[21] = system: M14 melanoma
[22] = system: MALME-3M melanoma
[23] = system: MCF7 breast
[24] = system: MDA-MB-231 breast
[25] = system: MDA-MB-435 melanoma
[26] = system: MDA-MB-468 breast
[27] = system: MOLT-4 leukemia
[28] = system: NCI-H226 lung
[29] = system: NCI-H23 lung
[30] = system: NCI-H322M lung
[31] = system: NCI-H460 NSCLC
[32] = system: NCI-H522 lung
[33] = system: NCI/ADR-RES ovarian
[34] = system: OVCAR-3 ovarian
[35] = system: OVCAR-4 ovarian
[36] = system: OVCAR-5 ovarian
[37] = system: OVCAR-8 ovarian
[38] = system: PC-3 prostate
[39] = system: RPMI-8226 leukemia
[40] = system: RXF 393 renal
[41] = system: SF-268 CNS
[42] = system: SF-295 CNS
[43] = system: SF-539 CNS
[44] = system: SK-MEL-28 melanoma
[45] = system: SK-MEL-5 melanoma
[46] = system: SK-OV-3 ovarian
[47] = system: SN12C renal
[48] = system: SNB-19 CNS
[49] = system: SNB-75 CNS
[50] = system: SR leukemia
[51] = system: SW-620 colon
[52] = system: T-47D breast
[53] = system: TK-10 renal
[54] = system: U251 glioblastoma
[55] = system: UACC-257 melanoma
[56] = system: UACC-62 melanoma
[57] = system: UO-31 renal
[58] = system: CCRF-CEM leukemia
[59] = system: SK-MEL-2 melanoma

CN(C)C/C=C/C(=O)Nc1cc2c(Nc3ccc(F)c(Cl)c3)ncnc2cc1O[C@H]1CCOC1
GI50 [1]: 0.763 µM
TGI [1]: 2.19 µM
GI50 [2]: 0.126 µM
TGI [2]: 1.54 µM
GI50 [3]: 0.436 µM
TGI [3]: 2.33 µM
GI50 [4]: < 0.01 µM
TGI [4]: 1.42 µM
GI50 [5]: 0.617 µM
TGI [5]: 1.92 µM
GI50 [6]: 0.138 µM
TGI [6]: 1.57 µM
GI50 [7]: 2.08 µM
TGI [7]: 10.3 µM
GI50 [8]: 0.383 µM
TGI [8]: 3.61 µM
GI50 [9]: < 0.01 µM
TGI [9]: 2.16 µM
GI50 [10]: 1.34 µM
TGI [10]: 2.81 µM
GI50 [11]: 0.551 µM
TGI [11]: 1.95 µM
GI50 [12]: 0.627 µM
TGI [12]: 2 µM
GI50 [13]: 0.34 µM
TGI [13]: 1.3 µM
GI50 [14]: 1.91 µM
TGI [14]: 5.05 µM
GI50 [15]: 0.499 µM
TGI [15]: 2.51 µM
GI50 [16]: 1.45 µM
TGI [16]: 3.14 µM
GI50 [17]: 2 µM
TGI [17]: 11.4 µM
GI50 [18]: < 0.01 µM
TGI [18]: 1.09 µM
GI50 [19]: 1.23 µM
TGI [19]: 3.07 µM
GI50 [20]: 1.05 µM
TGI [20]: 2.24 µM
GI50 [21]: 1.31 µM
TGI [21]: 2.59 µM
GI50 [22]: 1.42 µM
TGI [22]: 2.73 µM
GI50 [23]: 1.22 µM
TGI [23]: 2.78 µM
GI50 [24]: 0.386 µM
TGI [24]: 1.87 µM
GI50 [25]: 2.01 µM
TGI [25]: 9.46 µM
GI50 [26]: < 0.01 µM
GI50 [27]: 0.232 µM
TGI [27]: 1.26 µM
GI50 [28]: 0.907 µM
TGI [28]: 2.21 µM
GI50 [29]: 1.32 µM
TGI [29]: 2.78 µM
GI50 [30]: < 0.01 µM
TGI [30]: 0.0131 µM
GI50 [31]: 1.79 µM
TGI [31]: 3.8 µM
GI50 [32]: < 0.01 µM
TGI [32]: 0.0344 µM
GI50 [33]: 1.4 µM
TGI [33]: 5.41 µM
GI50 [34]: 0.0798 µM
TGI [34]: 0.928 µM
GI50 [35]: 2.05 µM
TGI [35]: 6.59 µM
GI50 [36]: 1.05 µM
TGI [36]: 7.64 µM
GI50 [37]: 1.2 µM
TGI [37]: 2.77 µM
GI50 [38]: 1.57 µM
TGI [38]: 3.58 µM
GI50 [39]: 1.28 µM
TGI [39]: 2.55 µM
GI50 [40]: 0.226 µM
TGI [40]: 0.838 µM
GI50 [41]: 1.39 µM
TGI [41]: 3.91 µM
GI50 [42]: 3.93 µM
TGI [42]: 14.6 µM
GI50 [43]: 1.41 µM
TGI [43]: 2.78 µM
GI50 [44]: 1.99 µM
TGI [44]: 5.18 µM
GI50 [45]: 1.02 µM
TGI [45]: 2.19 µM
GI50 [46]: 0.112 µM
TGI [46]: 8.4 µM
GI50 [47]: 0.316 µM
TGI [47]: 6.53 µM
GI50 [48]: 1.91 µM
TGI [48]: 10.6 µM
GI50 [49]: 0.429 µM
TGI [49]: 2.96 µM
GI50 [50]: 1.21 µM
TGI [50]: 2.45 µM
GI50 [51]: 1.8 µM
TGI [51]: 5.1 µM
GI50 [52]: 0.0171 µM
TGI [52]: 2.54 µM
GI50 [53]: < 0.01 µM
TGI [53]: 11.2 µM
GI50 [54]: 1.31 µM
TGI [54]: 4.05 µM
GI50 [55]: 1.33 µM
TGI [55]: 2.62 µM
GI50 [56]: 1.37 µM
TGI [56]: 2.78 µM
GI50 [57]: 0.184 µM
TGI [57]: 10.7 µM

CC1=C(CO)C2=C(C)C3(CC3)[C@@](C)(O)C(=O)C2=C1
GI50 [1]: 0.18 µM
TGI [1]: 0.381 µM
GI50 [2]: 0.0508 µM
TGI [2]: 0.367 µM
GI50 [3]: 0.0962 µM
TGI [3]: 0.527 µM
GI50 [4]: 0.214 µM
TGI [4]: 0.404 µM
GI50 [5]: 0.132 µM
TGI [5]: 0.269 µM
GI50 [6]: 0.178 µM
TGI [6]: 0.372 µM
GI50 [58]: 1.49 µM
TGI [58]: 2.83 µM
GI50 [7]: 0.132 µM
TGI [7]: 0.272 µM
GI50 [8]: 0.0468 µM
TGI [8]: 0.305 µM
GI50 [9]: 0.203 µM
TGI [9]: 0.452 µM
GI50 [10]: 0.11 µM
TGI [10]: 0.24 µM
GI50 [12]: 0.188 µM
TGI [12]: 0.365 µM
GI50 [13]: 0.179 µM
TGI [13]: 0.334 µM
GI50 [14]: 0.159 µM
TGI [14]: 0.316 µM
GI50 [15]: 0.124 µM
TGI [15]: 0.445 µM
GI50 [16]: 0.325 µM
TGI [16]: 1.07 µM
GI50 [17]: 0.184 µM
TGI [17]: 0.395 µM
GI50 [18]: 0.163 µM
TGI [18]: 0.447 µM
GI50 [19]: 1.4 µM
TGI [19]: 3.36 µM
GI50 [21]: 0.234 µM
TGI [21]: 0.576 µM
GI50 [22]: 0.152 µM
TGI [22]: 0.296 µM
GI50 [23]: 0.184 µM
TGI [23]: 0.496 µM
GI50 [24]: 0.203 µM
TGI [24]: 0.473 µM
GI50 [25]: 1.76 µM
TGI [25]: 3.48 µM
GI50 [26]: 0.0451 µM
TGI [26]: 0.125 µM
GI50 [27]: 0.147 µM
TGI [27]: 0.336 µM
GI50 [28]: 0.297 µM
TGI [28]: 0.793 µM
GI50 [29]: 0.0539 µM
TGI [29]: 0.181 µM
GI50 [30]: 0.182 µM
TGI [30]: 0.369 µM
GI50 [31]: 0.0437 µM
TGI [31]: 0.174 µM
GI50 [32]: 0.116 µM
TGI [32]: 0.244 µM
GI50 [33]: 0.222 µM
TGI [33]: 0.428 µM
GI50 [34]: 0.152 µM
TGI [34]: 0.312 µM
GI50 [35]: 0.201 µM
TGI [35]: 0.392 µM
GI50 [36]: 0.213 µM
TGI [36]: 0.519 µM
GI50 [37]: 0.219 µM
TGI [37]: 0.527 µM
GI50 [38]: 0.186 µM
TGI [38]: 0.404 µM
GI50 [39]: 5.96 µM
TGI [39]: 18 µM
GI50 [40]: 0.0167 µM
TGI [40]: 0.0358 µM
GI50 [41]: 0.143 µM
TGI [41]: 0.318 µM
GI50 [42]: 0.185 µM
TGI [42]: 0.374 µM
GI50 [43]: 0.173 µM
TGI [43]: 0.313 µM
GI50 [59]: 0.237 µM
TGI [59]: 0.392 µM
GI50 [44]: 0.251 µM
TGI [44]: 0.624 µM
GI50 [45]: 0.166 µM
TGI [45]: 0.376 µM
GI50 [46]: 0.179 µM
TGI [46]: 0.39 µM
GI50 [47]: 0.231 µM
TGI [47]: 0.761 µM
GI50 [48]: 0.317 µM
TGI [48]: 1.24 µM
GI50 [49]: 0.119 µM
TGI [49]: 0.25 µM
GI50 [50]: 0.171 µM
TGI [50]: 0.361 µM
GI50 [51]: 1.16 µM
TGI [51]: 3.15 µM
GI50 [52]: 0.159 µM
TGI [52]: 0.423 µM
GI50 [54]: 0.203 µM
TGI [54]: 0.41 µM
GI50 [55]: 0.216 µM
TGI [55]: 0.465 µM
GI50 [56]: 0.394 µM
TGI [56]: 1.52 µM
